Test system: primary human fibroblasts derived from IPF patients (LL29 cells) treated with TGF-β1
Assay: Inhibition of fibrotic process, αSMA staining in TGF-β1 treated LL29 fibroblasts
Format: cell-based
Settings: Fibroblast; for EC50: 96 h, % αSMA positive LL29 cells, TGF-β1 20 ng/mL, 4 days; for inhibition at 10 µM: given where EC50 >10 μM, αSMA, LL29 cells, TGF-β1, read-out: percent inhibition at 10 μM
From the text: Representative compounds were screened using primary human fibroblasts (derived from IPF patients) treated with TGF-β1 to determine their ability to inhibit the fibrotic process.
Primary human fibroblasts derived from IPF patients (LL29 cells) [^1Xiaoqiu Liu, et. al., “Fibrotic Lung Fibroblasts Show Blunted Inhibition by cAMP Due to Deficient cAMP Response Element-Binding Protein Phosphorylation”, Journal of Pharmacology and Experimental Therapeutics (2005), 315(2), 678-687; ^2Watts, K. L., et. al., “RhoA signaling modulates cyclin D1 expression in human lung fibroblasts; implications for idiopathic pulmonary fibrosis”, Respiratory Research (2006), 7(1), 88] were obtained from American Type Culture Collection (ATCC) and expanded in F12 medium supplemented with 15% Fetal Bovine Serum and Penicillin/Streptomycin.
Each compound was dissolved in DMSO as a 10 mM stock and used to prepare compound source plates. Serial dilution (1:2, 11-point dose-response curves from 10 μM to 1.87 nM) and compound transfer was performed using the ECHO 550 (Labcyte, Sunnyvale, Calif.) into 384-well clear bottom assay plates (Greiner Bio-One) with appropriate DMSO backfill for a final DMSO concentration of 0.1%. LL29 cells are plated at 1,500 cells/well in 80 μL/well F12 medium supplemented with 1% Fetal Bovine Serum. One hour after addition of the cells, TGF-β1 (Peprotech; 20 ng/mL) was added to the plates to induce fibrosis (ref. 1 and 2 above). Wells treated with TGF-β1 and containing DMSO were used as controls. Cells were incubated at 37° C. and 5% CO2 for 4 days. Following incubation for 4 days, SYTOX green nucleic acid stain (Life Technologies [Thermo Fisher Scientific]) was added to the wells at a final concentration of 1 μM and incubated at room temperature for 30 min. Cells were then fixed using 4% formaldehyde (Electron Microscopy Sciences), washed 3 times with PBS followed by blocking and permeabilization using 3% Bovine Serum Albumin (BSA; Sigma) and 0.3% Triton X-100 (Sigma) in PBS. Cells were then stained with antibody specific to α-smooth muscle actin (αSMA; Abcam) (ref. 1 and 2 above) in 3% Bovine Serum Albumin (BSA; Sigma) and 0.3% Triton X-100 (Sigma) in PBS, and incubated overnight at 4° C. Cells were then washed 3 times with PBS, followed by incubation with Alexa Flor-647 conjugated secondary antibody (Life Technologies [Thermo Fisher Scientific]) and DAPI at room temperature for 1 hour. Cells were then washed 3 times with PBS and plates were sealed for imaging. αSMA staining was imaged by excitation at 630 nm and emission at 665 nm and quantified using the Compartmental Analysis program on the CellInsight CX5 (Thermo Scientific). Dead or apoptotic cells were excluded from analysis based on positive SYTOX green staining. % of total cells positive for αSMA were counted in each well and normalized to the average of 11 wells treated with TGF-β1 on the same plate using Dotmatics' Studies Software. The normalized averages (fold change over untreated) of 3 replicate wells for each compound concentration were used to create dose-responses curves and EC50 values were calculated using non-linear regression curve fit in the Dotmatics' Studies Software. For EC50 of >10 μM, the percent inhibition at 10 μM is provided.

Compound | EC50 [nM] | inhibition at 10 µM [%]
CCC(=O)Nc1cncc(-c2cc3c(-c4cc5c(-c6cccc(F)c6)ccnc5[nH]4)n[nH]c3cn2)c1 [Compound 1, N-(5-(3-(4-(3-Fluorophenyl)-1H-pyrrolo[2,3-b]pyridin-2-yl)-1H-pyrazolo [3,4-c]pyridin-5-yl)pyridin-3-yl)propionamide] | 1620 | 
Fc1cccc(-c2ccnc3[nH]c(-c4n[nH]c5cnc(-c6cccnc6)cc45)cc23)c1 [Compound 4, 3-(4-(3-Fluorophenyl)-1H-pyrrolo[2,3-b]pyridin-2-yl)-5-(pyridin-3-yl)-1H-pyrazolo[3,4-c]pyridine] | 1030 | 
O=C(Nc1cncc(-c2cc3c(-c4cc5c(-c6cccc(F)c6)ccnc5[nH]4)n[nH]c3cn2)c1)c1ccccc1 [Compound 11, N-(5-(3-(4-(3-Fluorophenyl)-1H-pyrrolo[2,3-b]pyridin-2-yl)-1H-pyrazolo [3,4-c]pyridin-5-yl)pyridin-3-yl)benzamide] | 4210 | 
CC(C)CC(=O)Nc1cncc(-c2cc3c(-c4cc5c(-c6ccc(F)cc6)ccnc5[nH]4)n[nH]c3cn2)c1 [Compound 30, N-(5-(3-(4-(4-Fluorophenyl)-1H-pyrrolo[2,3-b]pyridin-2-yl)-1H-pyrazolo [3,4-c]pyridin-5-yl)pyridin-3-yl)-3-methylbutanamide] | 820 | 
CC(C)C(=O)Nc1cncc(-c2cc3c(-c4cc5c(-c6ccc(F)cc6)ccnc5[nH]4)n[nH]c3cn2)c1 [Compound 37, N-(5-(3-(4-(4-Fluorophenyl)-1H-pyrrolo[2,3-b]pyridin-2-yl)-1H-pyrazolo [3,4-c]pyridin-5-yl)pyridin-3-yl)isobutyramide] | 668 | 
O=C(Nc1cncc(-c2cc3c(-c4cc5c(-c6ccc(F)cc6)ccnc5[nH]4)n[nH]c3cn2)c1)C1CCC1 [Compound 49, N-(5-(3-(4-(4-Fluorophenyl)-1H-pyrrolo[2,3-b]pyridin-2-yl)-1H-pyrazolo [3,4-c]pyridin-5-yl)pyridin-3-yl)cyclobutanecarboxamide] | 1530 | 
O=C(Cc1ccccc1)Nc1cncc(-c2cc3c(-c4cc5c(-c6ccccc6F)ccnc5[nH]4)n[nH]c3cn2)c1 [Compound 66, N-(5-(3-(4-(2-Fluorophenyl)-1H-pyrrolo[2,3-b]pyridin-2-yl)-1H-pyrazolo [3,4-c]pyridin-5-yl)pyridin-3-yl)-2-phenylacetamide] | 501 | 
CN(C)Cc1cncc(-c2cc3c(-c4cc5c(-c6ccccc6F)ccnc5[nH]4)n[nH]c3cn2)c1 [Compound 69, 1-(5-(3-(4-(2-Fluorophenyl)-1H-pyrrolo[2,3-b]pyridin-2-yl)-1H-pyrazolo [3,4-c]pyridin-5-yl)pyridin-3-yl)-N,N-dimethylmethanamine] | > 10000 | 0
CCCCC(=O)Nc1cncc(-c2cc3c(-c4cc5c(-c6ccccc6F)ccnc5[nH]4)n[nH]c3cn2)c1 [Compound 75, N-(5-(3-(4-(2-Fluorophenyl)-1H-pyrrolo[2,3-b]pyridin-2-yl)-1H-pyrazolo [3,4-c]pyridin-5-yl)pyridin-3-yl)pentanamide] | 76 | 
O=C(Nc1cncc(-c2cc3c(-c4cc5c(-c6ccccc6F)ccnc5[nH]4)n[nH]c3cn2)c1)C1CCCCC1 [Compound 79, N-(5-(3-(4-(2-Fluorophenyl)-1H-pyrrolo[2,3-b]pyridin-2-yl)-1H-pyrazolo [3,4-c]pyridin-5-yl)pyridin-3-yl)cyclohexanecarboxamide] | 1340 | 
CC(C)(C)C(=O)Nc1cncc(-c2cc3c(-c4cc5c(-c6cccnc6)ccnc5[nH]4)n[nH]c3cn2)c1 [Compound 92, N-(5-(3-(4-(Pyridin-3-yl)-1H-pyrrolo[2,3-b]pyridin-2-yl)-1H-pyrazolo[3,4-c]pyridin-5-yl)pyridin-3-yl)pivalamide] | > 10000 | 2.4
CC(C)CC(=O)Nc1cncc(-c2cc3c(-c4cc5c(-c6ccncc6)ccnc5[nH]4)n[nH]c3cn2)c1 [Compound 114, 3-Methyl-N-(5-(3-(4-(pyridin-4-yl)-1H-pyrrolo[2,3-b]pyridin-2-yl)-1H-pyrazolo[3,4-c]pyridin-5-yl)pyridin-3-yl)butanamide] | > 10000 | 0
Cc1ccncc1-c1cc2c(-c3cc4c(-c5ccncc5)ccnc4[nH]3)n[nH]c2cn1 [Compound 117, 5-(4-Methylpyridin-3-yl)-3-(4-(pyridin-4-yl)-1H-pyrrolo[2,3-b]pyridin-2-yl)-1H-pyrazolo[3,4-c]pyridine] | 4430 | 
O=C(Cc1ccccc1)Nc1cncc(-c2cc3c(-c4cc5c(-c6ccncc6)ccnc5[nH]4)n[nH]c3cn2)c1 [Compound 122, 2-Phenyl-N-(5-(3-(4-(pyridin-4-yl)-1H-pyrrolo[2,3-b]pyridin-2-yl)-1H-pyrazolo[3,4-c]pyridin-5-yl)pyridin-3-yl)acetamide] | > 10000 | 8.1
O=C(Nc1cncc(-c2cc3c(-c4cc5c(-c6ccncc6)ccnc5[nH]4)n[nH]c3cn2)c1)C1CCC1 [Compound 133, N-(5-(3-(4-(Pyridin-4-yl)-1H-pyrrolo[2,3-b]pyridin-2-yl)-1H-pyrazolo[3,4-c]pyridin-5-yl)pyridin-3-yl)cyclobutanecarboxamide] | 2600 | 
O=C(Nc1cncc(-c2cc3c(-c4cc5c(-c6ccncc6)ccnc5[nH]4)n[nH]c3cn2)c1)C1CCCCC1 [Compound 135, N-(5-(3-(4-(Pyridin-4-yl)-1H-pyrrolo[2,3-b]pyridin-2-yl)-1H-pyrazolo[3,4-c]pyridin-5-yl)pyridin-3-yl)cyclohexanecarboxamide] | > 10000 | 10.8
c1ccc(-c2cc3c(-c4cc5c(-c6ccncc6)ccnc5[nH]4)n[nH]c3cn2)nc1 [Compound 140, 5-(Pyridin-2-yl)-3-(4-(pyridin-4-yl)-1H-pyrrolo[2,3-b]pyridin-2-yl)-1H-pyrazolo[3,4-c]pyridine] | > 10000 | 10.5
c1cc(N2CCCCC2)c2cc(-c3n[nH]c4cnc(-c5cncc(CN6CCCC6)c5)cc34)[nH]c2n1 [Compound 182, 3-(4-(Piperidin-1-yl)-1H-pyrrolo[2,3-b]pyridin-2-yl)-5-(5-(pyrrolidin-1-ylmethyl)pyridin-3-yl)-1H-pyrazolo[3,4-c]pyridine] | 4510 | 
O=C(Nc1cncc(-c2cc3c(-c4cc5c(N6CCCCC6)ccnc5[nH]4)n[nH]c3cn2)c1)C1CC1 [Compound 188, N-(5-(3-(4-(Piperidin-1-yl)-1H-pyrrolo[2,3-b]pyridin-2-yl)-1H-pyrazolo[3,4-c]pyridin-5-yl)pyridin-3-yl)cyclopropanecarboxamide] | 1780 | 
O=C(Cc1ccccc1)Nc1cncc(-c2cc3c(-c4cc5cccnc5[nH]4)n[nH]c3cn2)c1 [Compound 262, N-(5-(3-(1H-Pyrrolo[2,3-b]pyridin-2-yl)-1H-pyrazolo[3,4-c]pyridin-5-yl)pyridin-3-yl)-2-phenylacetamide] | > 10000 | 45.5
O=C(Nc1cncc(-c2cc3c(-c4cc5cccnc5[nH]4)n[nH]c3cn2)c1)c1ccccc1 [Compound 263, N-(5-(3-(1H-Pyrrolo[2,3-b]pyridin-2-yl)-1H-pyrazolo[3,4-c]pyridin-5-yl)pyridin-3-yl)benzamide] | > 10000 | 55.3
O=C(Nc1cncc(-c2cc3c(-c4cc5cccnc5[nH]4)n[nH]c3cn2)c1)C1CCCCC1 [Compound 275, N-(5-(3-(1H-Pyrrolo[2,3-b]pyridin-2-yl)-1H-pyrazolo[3,4-c]pyridin-5-yl)pyridin-3-yl)cyclohexanecarboxamide] | 2520 | 
Nc1cncc(-c2cc3c(-c4cc5c(-c6ccoc6)ccnc5[nH]4)n[nH]c3cn2)c1 [Compound 311, 5-(3-(4-(Furan-3-yl)-1H-pyrrolo[2,3-b]pyridin-2-yl)-1H-pyrazolo[3,4-c]pyridin-5-yl)pyridin-3-amine] | 1030 | 
CN(C)CCNc1cc(F)cc(-c2ccnc3[nH]c(-c4n[nH]c5cnc(-c6ccncc6)cc45)cc23)c1 [Compound 466, N^1-(3-Fluoro-5-(2-(5-(pyridin-4-yl)-1H-pyrazolo[3,4-c]pyridin-3-yl)-1H-pyrrolo[2,3-b]pyridin-4-yl)phenyl)-N^2,N^2-dimethylethane-1,2-diamine] | 1740 | 

— patent US10285982B2, “3-(1H-pyrrolo[2,3-B]pyridin-2-yl)-1H-pyrazolo[3,4-C]pyridines and therapeutic uses thereof” (Samumed, LLC, priority 2015, dated 2019)
